Source: ChEMBL document CHEMBL5046269, “Multifunctional P450 Monooxygenase CftA Diversifies the Clifednamide Pool through Tandem C-H Bond Activations” (2022)
In brackets after ≈: the same amount, converted by molar mass.

How the values were obtained:
Type in all cases: functional
Staphylococcus aureus = assay: Antibacterial activity against Staphylococcus aureus ATCC 11632 assessed as inhibition of bacterial growth measured after 18 hrs by CLSI protocol based microbroth dilution method
Candida albicans = assay: Antifungal activity against Candida albicans ATCC 48130 assessed as inhibition of fungal growth measured after 18 hrs by CLSI protocol based microbroth dilution method
Micrococcus luteus = assay: Antibacterial activity against Micrococcus luteus ATCC 10240 assessed as inhibition of bacterial growth measured after 18 hrs by CLSI protocol based microbroth dilution method
Bacillus subtilis = assay: Antibacterial activity against Bacillus subtilis ATCC 6633 assessed as inhibition of bacterial growth measured after 18 hrs by CLSI protocol based microbroth dilution method

MIC90 (Staphylococcus aureus): 22.4 µM (≈ 10.7 µg/mL) | MIC90 (Candida albicans): 22.4 µM (≈ 10.7 µg/mL) | MIC90 (Micrococcus luteus): 22.4 µM (≈ 10.7 µg/mL) | MIC90 (Bacillus subtilis): 22.4 µM (≈ 10.7 µg/mL)
Structure (SMILES): CC[C@H]1[C@@H]2C=C[C@@H]3[C@H]4C/C=C\C(=O)NCCC[C@@H]5NC(=O)C(=C5O)C(=O)/C=C/[C@@H]4C[C@@H]3[C@H]2C[C@H]1C
